We go through eight compounds from patent publication EP3635128B1, “CONTINUOUS SPECTROMETRIC ASSAYS FOR MEASURING MEPRIN ACTIVITY USING AN AUXILIARY ENZYME” (Vivoryon Therapeutics AG, priority 2017, dated 2018).

The target of assay [1] is T1, h-meprin β (Homo sapiens, UniProt Q16820).
T1 sequence (Q16820 62-701): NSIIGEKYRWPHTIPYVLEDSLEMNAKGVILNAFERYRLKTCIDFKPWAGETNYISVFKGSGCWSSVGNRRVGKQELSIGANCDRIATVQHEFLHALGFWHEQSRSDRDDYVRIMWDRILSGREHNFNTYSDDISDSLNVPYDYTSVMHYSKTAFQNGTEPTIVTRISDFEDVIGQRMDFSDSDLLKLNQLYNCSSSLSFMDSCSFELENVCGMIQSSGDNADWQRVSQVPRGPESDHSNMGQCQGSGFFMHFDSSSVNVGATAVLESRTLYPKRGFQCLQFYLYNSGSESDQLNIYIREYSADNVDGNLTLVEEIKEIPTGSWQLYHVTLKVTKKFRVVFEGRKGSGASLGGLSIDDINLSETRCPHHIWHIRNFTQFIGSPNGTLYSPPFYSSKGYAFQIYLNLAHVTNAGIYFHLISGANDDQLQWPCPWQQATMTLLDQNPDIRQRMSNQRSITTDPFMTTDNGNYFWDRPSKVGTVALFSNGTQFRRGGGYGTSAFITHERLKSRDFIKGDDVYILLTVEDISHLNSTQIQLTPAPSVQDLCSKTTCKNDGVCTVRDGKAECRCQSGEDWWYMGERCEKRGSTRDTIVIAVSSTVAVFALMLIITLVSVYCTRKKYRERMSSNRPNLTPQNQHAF
In words: coupled continuous fluorometric assay with auxiliary enzyme PtP and fluorogenic AMC substrates. Also noted: His6 (N); made in house; host or cells: Pichia pastoris strain X33. In kind it is biochemical. As for the experimental part:
(§1) The enzyme assay consisted of prolyl tripeptidyl aminopeptidase from Porphyromonas gingivalis, an appropriate amount of human h-meprin β or α and the chromogenic substrate KKGYVADAP-pNA (stock solution in assay buffer) in a final volume of 0.25 ml h-meprin β assay buffer (20 mM Tris-HCI; pH 7.5) or h-meprin α assay buffer (20 mM HEPES, 10 mM CaCl2, 0,05% Brij; pH 7.4). After 10 minutes preincubation, the reaction was started by addition of the substrate. Subsequently, absorption was measured at 405 nm for 20 minutes with the Tecan Genios Pro Reader (Tecan) at 30°C. PtP activity was determined using an absorption coefficient of 5717 mol/l, which was obtained from a standard curve of p-nitroaniline under assay conditions. A molecular mass of 79500 Da was used to calculate the Kcat value. Prolyl tripeptidyl aminopeptidase activity was measured utilizing the substrate DAP-pNA. In order to maintain conditions identical to those used in the h-meprin β assay, samples (250 µl) contained a final concentration of 0.2% (v/v) dimethyl sulfoxide. One unit is defined as the amount of enzyme that hydrolyses 1 µmol DAP-pNA per minute under the conditions described. The specific activity of the enzyme preparation was 7 units/mg.
Conversion of the fluorogenic substrate KKGYVADAP-AMC by PtP and h-meprin β was analyzed according to assay conditions as described for the chromogenic substrate. Fluorescence was measured at excitation/emission wavelengths of 380/460 nm. The fluorescence coefficient of 8.5×10^8 mol/l for DAP-AMC was calculated from a standard curve of 7-Amino-4-methylcoumarin under assay conditions.

The target in assay [2] is T1, h-meprin β. Nature of the assay: coupled continuous spectrophotometric assay with auxiliary enzyme PtP and chromogenic pNA substrates. The format is biochemical. Also noted: His6 (N); made in house; host or cells: Pichia pastoris strain X33. The settings on record: for Kcat / Kcat/KM (s^-1M^-1) / Km: hydrolysis of pNA substrate by meprin β, means ± S.D. The method, then:
as §1
(§2) In the first reaction of the substrate conversion, KKGYVADAP-pNA is cleaved to DAP-pNA by meprin α or β. The second reaction, the release of p-nitroaniline by PtP can be measured in this assay and correlates to the amount of released DAP-pNA by meprin. Based on these terms, a rate equation for irreversible coupled enzyme assays was first described by McClure, giving the opportunity of calculating the required amount of an auxiliary enzyme to minimize the time to reach steady-state conditions (McClure, W. R., Biochemistry. 1969, 8 (7), 2782-2786; Schilling, S., Hoffmann, T., Wermann, M., Heiser, U., Wasternack, C., Demuth, H.-U., Analytical biochemistry. 2002, 303 (1), 49-56, 10.1006/abio.2001.5560). The amount of auxiliary enzyme was calculated as follows (Eq. 1): V2 = −Km2 × ln(1−[DAP−pNA]t/[DAP−pNA]ss)/t. [formula]

For assay [3], the target named is T1, h-meprin β. Also noted: His6 (N); made in house; host or cells: Pichia pastoris strain X33. The settings on record: cited from earlier work; for substrate inhibition at concentrations above: internally quenched substrate, meprin β.
In assay [4] the target is T1, h-meprin β. Nature of the assay: coupled continuous spectrophotometric assay with auxiliary enzyme PtP and chromogenic pNA substrates. In kind it is biochemical. Details: His6 (N, cleaved yes); made in house; host or cells: Pichia pastoris X33 (pPICZαC), protein harvested from the fermenter supernatant. The method, then: as §1, §2
The target in assay [5] is T2, h-meprin α (Homo sapiens, UniProt Q16819).
T2 construct: His-tag (N); made in house; host or cells: Drosophila melanogaster S2 cells, stably transfected (pMT/BiP/V5-His C), protein harvested from the culture medium
T2 sequence (Q16819 66-746): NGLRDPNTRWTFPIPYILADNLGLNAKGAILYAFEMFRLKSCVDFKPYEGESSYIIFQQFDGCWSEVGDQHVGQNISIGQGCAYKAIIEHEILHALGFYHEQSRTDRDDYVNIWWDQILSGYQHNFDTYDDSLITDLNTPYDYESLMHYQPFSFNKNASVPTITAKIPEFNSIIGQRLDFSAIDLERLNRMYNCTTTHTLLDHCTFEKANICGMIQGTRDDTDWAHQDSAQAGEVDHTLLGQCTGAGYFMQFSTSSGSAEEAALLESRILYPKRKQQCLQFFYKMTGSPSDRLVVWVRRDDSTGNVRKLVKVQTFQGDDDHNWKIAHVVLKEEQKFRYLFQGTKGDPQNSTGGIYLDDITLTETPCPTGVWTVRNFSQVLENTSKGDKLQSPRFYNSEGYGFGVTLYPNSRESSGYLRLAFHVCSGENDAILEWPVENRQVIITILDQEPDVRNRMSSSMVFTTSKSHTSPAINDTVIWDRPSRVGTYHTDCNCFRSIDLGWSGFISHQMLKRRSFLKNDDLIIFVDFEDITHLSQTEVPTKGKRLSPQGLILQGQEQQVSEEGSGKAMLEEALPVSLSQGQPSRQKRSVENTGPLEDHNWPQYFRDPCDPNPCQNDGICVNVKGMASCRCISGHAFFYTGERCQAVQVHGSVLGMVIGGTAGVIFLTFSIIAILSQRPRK
Nature of the assay: non-coupled assay with internally quenched fluorogenic substrate. The settings on record: fluorogenic substrate Abz-YVADAPK(Dpn)G-OH; unpublished data. In kind it is biochemical.

The target in assay [6] is T2, h-meprin α. Nature of the assay: coupled continuous spectrophotometric assay with auxiliary enzyme PtP and chromogenic substrate KKGYVADAP-pNA. The format is biochemical. The method, then:
as §1, §2

Assay [7] concerns the target T1, h-meprin β. Details: His6 (N, cleaved yes); made in house; host or cells: Pichia pastoris X33 (pPICZαC), protein harvested from the fermenter supernatant. The settings on record: fluorogenic substrate Abz-YVAEAPK(Dpn)G-OH; from Schlenzig et al. 2015; cited from earlier work.
Setting [8] is: hydrolysis of AMC substrate by meprin β, means ± S.D.
Where [9] appears, read: hydrolysis of internally quenched substrate by meprin β, from Schlenzig et al. 2015.
The mark [10] stands for this setting: Dixon plot, four substrate concentrations of KKGYVADAP-pNA.
[11] abbreviates: chromogenic substrate KKGYVADAP-pNA, coupled continuous assay, means ± S.D.
The mark [12] stands for this setting: substrate KKGYVADAP-pNA, six inhibitor and four substrate concentrations.

Read-outs that look alike come from different tables or passages of the source. Peptide text beside a SMILES is read from it. * marks the point of attachment. pNA = O=[N+]([O-])c1ccc(N*)cc1; AMC = Cc1cc(=O)oc2cc(N*)ccc12

For `CC(=O)N[C@@H](CCCCN)C(=O)N[C@@H](CCCCN)C(=O)NCC(=O)N[C@@H](Cc1ccc(O)cc1)C(=O)N[C@H](C(=O)N[C@@H](C)C(=O)N[C@@H](CC(=O)O)C(=O)N[C@@H](C)C(=O)N1CCC[C@H]1C(=O)Nc1ccc2c(C)cc(=O)oc2c1)C(C)C` [Ac-KKGYVADAP-AMC] (Ac-KKGYVADAP-{AMC}), at h-meprin β [1] (setting [8]), the “Kcat” value was determined as 6.3 ± 1 s⁻¹, the “Kcat/KM (s^-1M^-1)” value is 10.0×10^4 ± 1.4×10^4 s^-1M^-1 and the Km came to 64 µM.
As to `CC(=O)N[C@@H](CCCNC(=N)N)C(=O)NCC(=O)N[C@@H](CCCNC(=N)N)C(=O)NCC(=O)N[C@@H](Cc1ccc(O)cc1)C(=O)N[C@H](C(=O)N[C@@H](C)C(=O)N[C@@H](CC(=O)O)C(=O)N[C@@H](C)C(=O)N1CCC[C@H]1C(=O)Nc1ccc([N+](=O)[O-])cc1)C(C)C` [Ac-RGRGYVADAP-pNA] (Ac-RGRGYVADAP-pNA), on h-meprin β [2], the “Kcat” value came out at 19.9 ± 10.2 s⁻¹, the “Kcat/KM (s^-1M^-1)” value is listed as 15.0×10^4±1.1×10^5 s^-1M^-1 and the Km is 140 µM.
With Abz-MGWMDEIDK(Dnp)SG-OH [OCK+], the “substrate inhibition at concentrations above” value at h-meprin β [3] is on record as “above 40 µM”.
As to Abz-YVAEAPK(Dpn)G-OH, at h-meprin β [3] (setting [9]), the “Kcat” value is 35.0 ± 2.5 s⁻¹, the “Kcat/KM (s^-1M^-1)” value is recorded as 129.0×10^4 ± 3.0×10^4 s^-1M^-1 and the Km is 27 µM. The “substrate inhibition at concentrations above” value on h-meprin β [3] is “above 100 µM”.
Take `CCCCC[C@H](CC(=O)NO)C(=O)N[C@H](C(=O)N1CCC[C@H]1CO)C(C)C` [actinonin]: the mode of inhibition entry on h-meprin β [4] (setting [10]) and at h-meprin α [6] (setting [10]) was “competitive” each time. Moreover, the IC50 against h-meprin β [4] (setting [11]) was 760 nM; against h-meprin α [5] it was 9.6 nM; on h-meprin α [6] (setting [11]), 12 nM; at h-meprin β [7], 440 nM. In addition, the inhibitory constant (Ki) amounted to 270 nM on h-meprin β [4] (setting [12]) and 3.2 nM at h-meprin α [6] (setting [12]).
Turning to `CC(C)[C@H](NC(=O)[C@H](Cc1ccc(O)cc1)NC(=O)CNC(=O)[C@H](CCCCN)NC(=O)[C@@H](N)CCCCN)C(=O)N[C@@H](C)C(=O)N[C@@H](CC(=O)O)C(=O)N[C@@H](C)C(=O)N1CCC[C@H]1C(=O)Nc1ccc([N+](=O)[O-])cc1` [KKGYVADAP-pNA, H-Lys-Lys-Gly-Tyr-Val-Ala-Asp-Ala-Pro-pNA] (H-KKGYVADAP-pNA), the substrate inhibition result at h-meprin β [2] (at concentrations up to 2 mM) was “no inhibitory effect”. At h-meprin β [2], the “Kcat” value is 20 ± 4.1 s⁻¹, the “Kcat/KM (s^-1M^-1)” value is listed as 11.0×10^4 ± 4.8×10^3 s^-1M^-1 and the Km was determined as 180 µM.
As to `Cc1cc(=O)oc2cc(NC(=O)[C@@H]3CCCN3C(=O)[C@H](C)NC(=O)[C@H](CC(=O)O)NC(=O)[C@H](C)NC(=O)[C@@H](NC(=O)[C@H](Cc3ccc(O)cc3)NC(=O)CNC(=O)[C@H](CCCCN)NC(=O)[C@@H](N)CCCCN)C(C)C)ccc12` [KKGYVADAP-AMC, H-Lys-Lys-Gly-Tyr-Val-Ala-Asp-Ala-Pro-AMC] (H-KKGYVADAP-{AMC}), the substrate inhibition entry on h-meprin β [1] (at concentrations up to 2 mM) is given as “no inhibitory effect”. Also, at h-meprin β [1] (setting [8]), the “Kcat (s^-1)” value is listed as 4.3 ± 6.1×10^-1 s^-1, the “Kcat/KM (s^-1M^-1)” value is 6.0×10^4 ± 1.6×10^4 s^-1M^-1 and the Km was determined as 74 µM.
In the case of `CC(=O)N[C@@H](CCCCN)C(=O)N[C@@H](CCCCN)C(=O)NCC(=O)N[C@@H](Cc1ccc(O)cc1)C(=O)N[C@H](C(=O)N[C@@H](C)C(=O)N[C@@H](CC(=O)O)C(=O)N[C@@H](C)C(=O)N1CCC[C@H]1C(=O)Nc1ccc([N+](=O)[O-])cc1)C(C)C` [Ac-KKGYVADAP-pNA] (Ac-KKGYVADAP-pNA), on h-meprin β [2], the “Kcat” value turned out to be 20.0 ± 3.5 s⁻¹, the “Kcat/KM (s^-1M^-1)” value is given as 6.4x10^4 ± 2.5x10^4 s^-1M^-1 and the Km came to 360 µM.

Broadly, the Km is the substrate concentration at which the rate is half of its maximum. A word on the IC50: it is the concentration that gives 50% inhibition. For orientation: Ki means a measure of affinity in units of concentration, obtained from inhibition or displacement. Higher therefore signals weaker binding.
